Measurements from patent publication US20210353590A1 (priority 2020, published 2021).
Converted amounts (≈) assume the structure as drawn.

Legend:
[1] = Solubility analysis by saturated solution method; settings: 37±1° C., 24 hrs, 100 rpm
Method: After that, suspension was filtered and 0.1 ml of the filtrate was diluted with water up to 1 ml. The contents in the aliquot were measured by HPLC method (Sajeeb BK, 2015). All measurements were carried out in triplicate (n=3).

[2] = Pharmacokinetic analysis; settings: rat
Method: The photoperiod of 12 h was maintained. […] 120 male rats were randomly divided into 30 groups of 4 animals each corresponding to the time points of blood collection. […] Rats were fasted (Approximately 4 h) before administration of drug. On the other hand, AND at the dose of 10-mg/kg was administered intravenously (i.v.) for comparative studies. Plasma concentration data was analyzed and computed for pharmacokinetic parameters. The following pharmacokinetic parameters were assessed: ke (h), t½ (h), Cmax (μg/ml), AUClast (h.μg/ml), AUCinf (h.μg/ml), MRT (h), CLTotal (L/h), Vd (L) and F%.

[3] = after 2 h, simulated intestinal fluid pH 7.2, 37±2° C., 50 rpm, 100 mg AND or equivalent

In the case of `C=C1CC[C@@H]2[C@](C)(CO)[C@H](O)CC[C@@]2(C)[C@@H]1C/C=C1/C(=O)OC[C@H]1O` [Andrographolide], the “solubility in aqueous phase” value [1] is reported as 6.39 ± 0.47 µg/mL (≈ 18.2 µM), the AUC inf ([2]; Oral, 100 mg/kg) is reported as 1845.58 ± 305.77 µg·h/mL and the AUC last ([2]; Oral, 100 mg/kg) is reported as 1223.6 ± 143.09 µg·h/mL. For the same compound, the CLTotal ([2]; Oral, 100 mg/kg) was 0.055 ± 0.008 L/h, the Cmax ([2]; Oral, 100 mg/kg) was 239.6 ± 75.37 µg/mL and the Vd ([2]; Oral, 100 mg/kg) was 0.468 ± 0.060 L. For the same compound, the t1/2 ([2]; Oral, 100 mg/kg) was 5.92 ± 0.21 h, the tmax ([2]; Oral, 100 mg/kg) was 2 h and the “F (bioavailability)” value ([2]; Oral, 100 mg/kg, versus AND i.v. 10 mg/kg) was 15.87±3.84%. It also gave an AUC inf ([2]; i.v., 10 mg/kg) of 891.08 ± 179.75 µg·h/mL, an AUC last ([2]; i.v., 10 mg/kg) of 801.14 ± 181.07 µg·h/mL and a CLTotal ([2]; i.v., 10 mg/kg) of 0.011 ± 0.002 L/h. It also gave an MRT ([2]; i.v., 10 mg/kg) of 1.11 ± 0.04 h, a Vd ([2]; i.v., 10 mg/kg) of 0.013 ± 0.003 L and a t1/2 ([2]; i.v., 10 mg/kg) of 0.859 ± 0.031 h. For the same compound, the MRT ([2]; in vivo, po, 100 mg/kg) was 1.49 ± 0.0.085 h and the release [3] was 27.89±1.32%.
